One experiment has as its target PRMT5 (Homo sapiens, UniProt O14744). The note with it: cited from earlier work.
The test system of experiment [1] is MTAP− and MTAP+ cell lines (isogenic pairs). As to the kind of experiment: Cell viability IC50 measurement (Cell Titer-Glo). In kind it is cell-based. How it is done: Applicants tested the ability of these inhibitors to selectively impair viability of parental MTAP− cell lines compared to isogenic lines expressing MTAP, as well as parental MTAP+ cell lines compared to isogenic CRISPR-mediated MTAP knockout lines (FIG. 17).
Cell plating densities were determined by evaluating the number of cells required to achieve 70% confluency after 12 days in culture. Cells were seeded in 100 μL of media in 96-well plates (excluding wells in the first or last row or column) using the following densities in cells per well: LU99 at 360, H647 at 100, SF-172 at 35, SU8686 at 250, MIAPACA2 at 135, H838 at 73, H2126 at 1042, HCC44 at 62, KP2 at 292, H661 at 166, and H2030 at 250. Isogenic cell line pairs were seeded at the same densities for all experiments.
Drug was administered using the HP D300 digital dispenser (Hewlett-Packard). […] Media and drug were changed every 4 days.
Isogenic cell line pairs were plated and cultured in parallel for the same time period. Luminescence was measured according to the manufacturer's instructions using the EnVision Multilabel Reader (Perkin Elmer). Luminescence data from each well was normalized to luminescence from wells containing untreated cells on that same plate. IC50 was calculated by non-linear regression using the ‘log(inhibitor) vs. response (three parameters) analysis in GraphPad Prism 6.
For orientation: ATP-based viability assays read luminescence as a measure of living cells.

Chain of PRMT5 (O14744 whole entry): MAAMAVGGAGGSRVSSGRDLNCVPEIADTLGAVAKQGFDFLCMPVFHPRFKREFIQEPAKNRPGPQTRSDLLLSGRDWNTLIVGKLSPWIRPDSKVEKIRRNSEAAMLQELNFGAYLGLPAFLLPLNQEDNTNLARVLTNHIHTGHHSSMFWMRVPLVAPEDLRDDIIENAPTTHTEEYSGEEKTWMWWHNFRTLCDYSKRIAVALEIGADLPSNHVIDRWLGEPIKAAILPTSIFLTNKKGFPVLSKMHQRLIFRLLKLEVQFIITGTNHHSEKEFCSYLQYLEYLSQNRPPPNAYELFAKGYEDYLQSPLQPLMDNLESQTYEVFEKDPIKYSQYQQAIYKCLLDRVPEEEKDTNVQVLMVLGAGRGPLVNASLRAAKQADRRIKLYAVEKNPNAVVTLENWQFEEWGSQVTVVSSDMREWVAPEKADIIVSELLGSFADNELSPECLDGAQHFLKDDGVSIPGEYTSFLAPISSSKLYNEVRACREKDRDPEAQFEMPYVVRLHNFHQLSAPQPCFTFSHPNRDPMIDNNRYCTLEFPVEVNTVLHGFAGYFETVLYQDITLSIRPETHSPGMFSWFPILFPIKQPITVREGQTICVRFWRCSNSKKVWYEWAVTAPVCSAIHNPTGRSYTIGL
Chain of PRMT5 (Q9BQA1 whole entry partner): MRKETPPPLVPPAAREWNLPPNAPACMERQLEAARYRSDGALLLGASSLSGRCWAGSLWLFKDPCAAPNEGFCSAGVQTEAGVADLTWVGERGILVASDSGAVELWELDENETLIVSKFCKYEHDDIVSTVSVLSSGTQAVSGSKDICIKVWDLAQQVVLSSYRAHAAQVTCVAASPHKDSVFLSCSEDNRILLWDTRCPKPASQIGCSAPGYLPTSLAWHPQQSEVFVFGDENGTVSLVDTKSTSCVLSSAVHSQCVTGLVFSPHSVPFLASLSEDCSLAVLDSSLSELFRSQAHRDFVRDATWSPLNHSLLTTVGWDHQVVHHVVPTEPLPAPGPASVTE

As to `O=C(NC[C@H](O)CN1CCc2ccccc2C1)c1cc(NC2COC2)ncn1` [EPZ015666], on PRMT5, the “mode of inhibition of PRMT5” value is “peptide-competitive and SAM-cooperative”. For the same compound, in experiment [1] (SF-172 isogenic pair), the “differential sensitivity between isogenic MTAP− and MTAP+ cells” value is given as “absent altogether”. Besides, the “difference in mean IC50 values between MTAP+ and MTAP− cell lines” value in experiment [1] (parental MTAP+ vs MTAP− cell lines) is given as “did not observe significant differences”.
